Results reported in patent US20100119489A1, “Stimulation of Pancreatic Beta Cell Proliferation” (priority 2005, published 2010).

Assays:
TMEM27 [1] = test: Shedding of TMEM27 from MIN6 cells (immunoblot of supernatant, N-terminus; anti-V5 C-terminus as control); type: cell-based; conditions: 2 hrs in OPTI-MEM
Experimental: The pancreatic beta-cell line MIN6 was cultured with DMEM medium containing 25 mM glucose, 15% fetal bovine serum, and 5.5 μM 2-mercaptoethanol. MIN6 cells were plated at 50% confluency in 12 well plates and incubated for 24 hrs. Cells were washed with OPTI-MEM (Invitrogen) and incubated with either DMSO or protease inhibitor BB94 (1 μM) for 15 minutes in OPTI-MEM at 37° C. After the above incubation, cells were incubated with DMSO, PMA (Sigma P8139), BB94, or PMA+BB94 for 2 hrs in OPTI-MEM. 30 μl of each supernatant was collected for SDS-PAGE. Immunoblots were performed using anti-TMEM27 antibodies recognizing the N-terminus (cleaved portion) of TMEM27 (FIG. 8). […] Since BB94 is a known inhibitor of serine proteases and metalloproteases, this may indicate that TMEM27 is a substrate of a protease belonging to serine protease or metalloprotease family.

TMEM27 [2] = test: Inhibition of N-glycosylation of TMEM27 in MIN6 cells (SDS-PAGE, immunoblot); type: cell-based; conditions: increasing concentrations of tunicamycin, 12 hours at 37° C.
Experimental: (§1) (A) MIN6 cells were incubated with increasing amounts of tunicamycin, which inhibits glycosylation at asparagine residues. Addition of DMSO alone to the cells had no effect. (B) Supernatant from MIN6 cells was incubated with N-glycanase. […] Secreted protein was detected with anti-Col-3 antibody. (C) MIN6 cell lysates were incubated with either PBS or cross-linking reagents DTBP and BMH. […] Under reducing conditions, only the monomer was detected in PBS and DTBP-treated cell lysates. In contrast, the dimer persisted in BMH-treated samples as BMH cross-linking could not be reversed.
MIN6 cells that express pV5-TMEM27 were incubated with indicated concentrations of tunicamycin (Sigma) dissolved in DMSO and with DMSO alone for 12 hours at 37° C. Cell lysates were then subjected to SDS-PAGE and immunoblotting with anti-V5 antibody.
TMEM27 contains two predicted N-glycosylation sites at amino acid residues 76 and 93. MIN6 cells were treated with tunicamycin, which inhibits N-glycosylation. Cells were incubated in the presence of increasing concentrations of tunicamycin, and protein extracts were prepared and analyzed by SDS-PAGE and immunoblotting.

[3] = biological target: the molecule itself; test: chemical cross-linking (DTBP, BMH) of MIN6 cell lysates, reducing and non-reducing SDS-PAGE, immunoblot
Experimental: as §1
Chemical cross-linking experiments testing whether TMEM27 protein exists as a multimer were conducted. MIN6 cell extracts were incubated in the presence of two different cross-linking reagents; BMH (bismaleimidohexane), a membrane-permeable, non-cleavable compound and DTBP (dimethyl 3,3′-dithiobispropionimidate), a membrane permeable, cleavable compound prior to SDS-PAGE analysis that was performed under reducing and non-reducing conditions. […] However, the protein dimers disappeared under reducing conditions in the presence of DTBP (FIG. 3b). The results were similar in MIN6 cells that endogenously express TMEM27 and in N2A cells that were transiently transfected with TMEM27 expression vector (data not shown).

CCCCCCCCCCCCCC(=O)O[C@@H]1[C@@H](C)[C@@]2(O)[C@@H](C=C(CO)C[C@]3(O)C(=O)C(C)=C[C@@H]23)[C@@H]2C(C)(C)[C@]12OC(C)=O [PMA, phorbol 12-myristate 13-acetate]
expression levels of TMEM27 (C-terminus, anti-V5 antibody control) (TMEM27 [1]): do not change the expression levels of TMEM27

tunicamycin
effect on TMEM27 bands (N-glycosylation) (TMEM27 [2]): Two bands with increased electrophoretic mobility appeared

B1: TMEM27 full-length protein (other, mouse, UniProt Q9ESG4 15-222, looked up)
chain: ELCHPDAENAFKVRLSIRAALGDKAYVWDTDQEYLFRAMVAFSMRKVPNREATEISHVLLCNITQRVSFWFVVTDPSNNYTLPAAEVQSAIRKNRNRINSAFFLDDHTLEFLKIPSTLAPPMEPSVPVWIIVFGVIFCIVTVAIALLVLSGIRQRRRNNKGPPGVEDAEDKCENIITIENGIPCDPLDMKGGHINDGFLTEDERLTPL
modifications: N-glycosylated (predicted N-glycosylation sites at amino acid residues 76 and 93)
notes: Detected in cell or islet lysates (Western blot) and in fixed, permeabilized MIN6 cells; It also differs from the immunizing peptides, so it is not used here; the transgenic construct uses murine cDNA; also called TMEM protein
binding result [3]: binds
